Results: patent US20140086839A1, “QUINOLONE ANALOGS FOR TREATING AUTOIMMUNE DISEASES” (Tel HaShomer Medical Research Infrastructure and Services …, priority 2011, published 2014)

Assays:
[1] = XTT cell viability assay of PHA-stimulated mouse splenocytes; type: cell-based
Procedure: FIG. 5 is a histogram depicting the effect of CX-5461 on viability of mouse splenocytes. Mouse splenocytes were plated in DMEM+10% FCS+P/S+Q and 10 μg/ml PHA (250,000 cell/well) in the presence of increased concentrations of CX-5461 (50-4000 nM) for 72 hours. Cells cultured with PHA alone served as controls. Following incubation cell viability was determined by XTT assay;
Cells viability was assessed by the 2,3 bis[2-Methoxy-4-nitro-5-sulfophenyl]-2H-tetrazolium-5-carboxanilide (XTT) as say (Biological Industries, Kibbutz Beit Hemeek, Israel) which measures the reduction of a tetrazolium component (XTT) into soluble formazan product by the mitochondria of viable cells. The intensity of the dye obtained is proportional to the number of metabolic active cells. Mouse splenocytes were plated in presence of PHA ([…]) and elevated concentrations of CX-5461 (50-4000 nM) for 72 hours. Cells plated in absence of CX-5461 served as controls. Following incubation, cell viability was measured by 2,3-bis-(2-methoxy-4-nitro-5-sulfophenyl)-2H-tetrazolium-5-carboxanilide (XTT) assay according to manufacturer's instructions (Biological Industries, Kibbutz Beit Hemeek, Israel). The intensity of the dye obtained is proportional to the number of metabolic active cells.

[2] = XTT cell viability of PHA-stimulated human PBMCs from healthy subjects; type: cell-based; conditions: PHA 20 μg/ml, read-out: maximal effect on viability of human PBMCs (decrease)
Procedure: FIG. 6 is a histogram depicting the effect of CX-5461 on viability of human PBMCs. Human PBMCs were plated in DMEM+10% FCS+P/S+Q and 20 μg/ml PHA (400,000 cell/well) in the presence of increased concentrations of CX-5461 (50-500 nM) for 72 hours. Cells cultured with PHA alone served as controls. After incubation cell viability was determined by XTT assay;
PBMCs ([…]) from normal, healthy, subjects were plated in the presence of PHA (20 μg/ml) with elevated concentrations of CX-5461 (50-500 nM) for 72 hours. Cells plated in absence of CX-5461 served as controls.

[3] = XTT cell viability assay of neuronal progenitor cells; type: cell-based, mice; conditions: read-out: decrease in NPC cell viability
Procedure: (§1) FIG. 8 is a histogram depicting the effects of CX-5461 on viability of neuronal progenitor cells (NPCs). Mouse NPCs were plated in neurospheres medium containing basic FGF and EGF at 20 ng/ml each (26,000 cell/well) in the presence of increased concentrations of CX-5461 (20-500 nM) for 72 hours. Cells cultured without CX-5461 served as controls. Following incubation cell viability was determined by XTT assay;
(§2) NPCs derived from the subventricular zone of the lateral ventricle of adult mice were allowed to proliferate in the presence of increased concentrations of CX-5461 (20 nM to 500 nM) for 72 hours, and cell viability was tested using XTT assay.

[4] = tested on: neural progenitor cells (NPCs); test: as above; type: cell-based, mice; conditions: 20 nM, 72 hours
Procedure: as §1, §2

MOG-induced EAE [5] = test: MOG-induced EAE, CX-5461 prophylactic treatment initiated at induction phase; type: in vivo; conditions: for Cumulative disease score / Disease onset / Maximal clinical score: 9 days
Procedure: (§3) EAE was induced in female C57BL/6 mice, 8 weeks of age, by subcutaneous immunization to the flank of emulsion (1:1 ratio volume/volume) containing […] peptide dissolved in phosphate-buffered saline (PBS) (at a concentration 2 mg/ml) and 0.5 mg Mycobacterium Tuberculosis H37Ra (Difco, Detroit, Mich.) in […] incomplete Freund's adjuvant (Sigma, St. Louis, Mo.). Pertussis toxin 200 ng/mouse (dissolved in […] PBS (List Biological Laboratories, Campbell, Calif.) was injected intra-peritoneal on the day of immunization and again two days later. Mice were monitored daily for clinical signs of EAE, scored as follows: 1-flaccid tail; 1.5—hind limb weakness; 2—paralyzed hind limbs and poor righting ability; 2.5—forelimb weakness, paralyzed hind limbs, paralyzed tail; 3—four limbs paralysis, inability to right; 4—quadriplegia; 5.0—moribund or death of the animal after preceding clinical disease. Animal reaching a score of 4 were scarified using CO2. Mice were kept in an SPF (Specific Pathogen Free) environment. Animal breeding and maintenance and all experimental protocols were performed in accordance with the Israeli Council for Animal Care guidelines and all experiments were approved by Sheba IRB Animal Care Ethical Committee.
EAE was induced in female C57Bl/6J female mice (8 weeks old) as described above. Treatment with CX-5461 was initiated on the day of induction and continued till the clinical signs of EAE appeared in the control animal group (In 2 out of the 7 mice clinical signs of EAE appeared). CX-5461 was administered orally to each animal; the following doses of CX-5461 in 0.2 ml of vehicle were used: 12.5 mg/kg (n=6 mice), 25 mg/kg (n=6 mice) and 50 mg/kg (n=7 mice) in 0.2 ml of vehicle. Vehicle treated mice served as controls (n=7 mice). Treatment continued for 9 days post induction, until the first sign of EAE (grade 1) appeared in the vehicle animal group (in 2 out of 7 mice). Mice were monitored daily for clinical signs of EAE up to 42 days post induction.

MOG-induced EAE [6] = test: MOG-induced EAE, CX-5461 treatment initiated at clinical onset; type: in vivo
Procedure: as §3
EAE was induced in mice as described in Example 6, hereinabove.
EAE was induced in female C57/6J female mice as described above. Treatment with CX-5461 was administered orally in 0.2 ml of vehicle with the following concentrations: 12.5 mg/kg/d (n=11 mice) and 25.0 mg/kg/d (n=8 mice). Vehicle treated mice served as controls (n=9 mice). CX-5461 treatment was initiated from the day of disease onset (score 0.5 or 1.0) for the following 14 days. The day of disease onset was evaluated for each animal daily.

[7] = 12.5 mg/kg/day oral from day of EAE induction
[8] = 25.0 mg/kg/day oral from day of EAE induction
[9] = 12.5 mg/kg/day oral from disease onset, 14 days
[10] = 25 mg/kg/day oral from disease onset

Structure (SMILES): Cc1cnc(CNC(=O)c2c(=O)c3ccc(N4CCCN(C)CC4)nc3n3c2sc2ccccc23)cn1 [CX-5461, 2-(4-methyl-1,4-diazepan-1-yl)-N-((5-methylpyrazin-2-yl)methyl)-5-oxo-5H-benzo[4,5]thiazolo[3,2-a][1,8]naphthyridine-6-carboxamide]
- cytotoxicity at 72 h, 50 nM ([1]; 50 nM, read-out: decrease in cell viability of splenocyte cells): 27%
- cytotoxicity at 72 h ([1]; 500 nM and higher concentrations, read-out: decrease in cell viability of splenocyte cells (maximal)): 97 to 100%
- cytotoxicity at 72 h, 50 nM [2]: 35%
- cytotoxicity at 72 h, 50 nM ([3]; mouse, 50 nM): 30%
- cytotoxicity at 72 h ([3]; mouse, 100, 250 and 500 nM): ~50%
- effect on NPCs viability [4]: no effect
- Cumulative disease score (MOG-induced EAE [5]; [7]): 16.25 ± 3.94
- Disease onset (MOG-induced EAE [5]; [7]): 20.83 ± 1.36 days p.i.
- Maximal clinical score (MOG-induced EAE [5]; [7]): 2.83 ± 0.49
- Cumulative disease score (MOG-induced EAE [5]; [8]): 14.1 ± 3.5
- Disease onset (MOG-induced EAE [5]; [8]): 23.1 ± 1.2 days p.i.
- Maximal clinical score (MOG-induced EAE [5]; [8]): 3.3 ± 1.0
- time to death (toxicity) (MOG-induced EAE [5]; 50 mg/kg/day oral, days of treatment post-induction, mean): 7.6 ± 0.5 days
- toxic signs (MOG-induced EAE [5]; 50 mg/kg/day oral, since day 5 of treatment): change in the color and brightness of their fur, loss of weight and change in behavior
- delay of EAE onset versus vehicle-control group (MOG-induced EAE [5]; all CX-5461 treated groups, not dependent on concentration): 10 days
- Cumulative disease score (MOG-induced EAE [6]; [9]): 18.59 ± 4.26
- Maximal EAE score (MOG-induced EAE [6]; [9]): 2 ± 0.47
- survival (MOG-induced EAE [6]; [9]): all the animals survived
- EAE score (MOG-induced EAE [6]; [10]): 0.88±0.18
- toxic effects (MOG-induced EAE [6]; [10]): change in their fur color and brightness and loss of weight
- time to death (toxic effects) (MOG-induced EAE [6]; 25 mg/kg/day oral from disease onset, all mice died): 10.1 ± 0.5 days
